Earlier results on one compound are cited in patent publication US12128066B2, “Product for treating skin fungus and its micronized preparation method” (priority 2021, dated 2024).

For this data set the following is noted: in water or organic solvents.

Turning to `S=[Se]=S` [Selenium disulfide], the Solubility result is listed as “almost insoluble”.
